The results in this text go back to article PMC7700423, “Differential Effects of 1α,25-Dihydroxyvitamin D3 on the Expressions and Functions of Hepatic CYP and UGT Enzymes and Its Pharmacokinetic Consequences In Vivo” (Pharmaceutics, 2020).

What all share (assay type): in vivo, rat
The subject of one series is hepatic Cyp2b1 mRNA. Kind of series: Hepatic mRNA expression by qPCR. Conditions: 2.56 nmol/kg/day i.p. for 4 days, n = 4-5, p = 0.006. As to the method:
(§1) Male Sprague-Dawley (SD) rats (8 weeks, 260–280 g) were purchased from Nara Biotech Co. (Seoul, Korea). […] The dosing solution for the control group was prepared but the 1,25(OH)2D3 was omitted. […] On the fifth day, rats were used for pharmacokinetic study.
(§2) Collected livers were frozen immediately with liquid nitrogen and stored at −80 °C. Trizol reagent in RNAiso Plus (Takara Bio, Inc., Shiga, Japan) was used to extract RNA from 100-mg tissue homogenates according to the manufacturer’s protocol. After purities and total RNA concentrations extracted from liver samples were determined at a wavelength of 260/280 nm with a Nanodrop 2000c spectrophotometer (Thermo Scientific, Waltham, MA, USA), synthesis of cDNA was processed from 1 μg of total RNA using the following conditions: incubation at 50 °C for 1 h, inactivation at 95 °C for 5 min, and cooling to 4 °C. The synthesized cDNA was then subjected to qPCR assays using SYBR® Premix Ex TagTM on Stratagene Mx3005P (Agilent Technologies, Boblingen, Germany) using the following conditions: 95 °C for 10 min and 40 cycles of 95 °C for 15 s and 55 °C for 30 s. A “Comparative Quantitation” mode was selected, and fold expressions were calculated using the delta-delta method 2^−(△△Ct). GAPDH was used as the internal reference gene for normalization. The forward and reverse primers used for qPCR analysis are listed in Supplementary Table S1 [2, 25, 28, 29].

In the next series the test system is hepatic Cyp2c6 mRNA. Kind of series: Hepatic mRNA expression by qPCR. The note with it: 2.56 nmol/kg/day i.p. for 4 days, n = 4-5. As to the method: as §1, §2
Background: Quantitative PCR measures a nucleic acid by following its amplification.

For the next series, the system named is hepatic Cyp2d2 mRNA. In words: Hepatic mRNA expression by qPCR. The note with it: 2.56 nmol/kg/day i.p. for 4 days, n = 4-5. As to the method: as §1, §2
The subject of another series is hepatic Ugt1a8 mRNA. Kind of series: Hepatic mRNA expression by qPCR. The note with it: 2.56 nmol/kg/day i.p. for 4 days, n = 4-5. As to the method:
as §1, §2

The test system of the next series is hepatic Ugt1a7 mRNA. Kind of series: Hepatic mRNA expression by qPCR. The note with it: 2.56 nmol/kg/day i.p. for 4 days, n = 4-5. As to the method: as §1, §2
In the next series the test system is hepatic Ugt1a1 mRNA. Kind of series: Hepatic mRNA expression by qPCR. Conditions: 2.56 nmol/kg/day i.p. for 4 days, n = 4-5. As to the method:
as §1, §2

The next series concerns hepatic Cyp2c11 mRNA. In words: Hepatic mRNA expression by qPCR. Conditions: 2.56 nmol/kg/day i.p. for 4 days, n = 4-5, p = 0.001. As to the method:
as §1, §2

Another series relates to hepatic Ugt2b1 mRNA. In words: Hepatic mRNA expression by qPCR. Conditions: 2.56 nmol/kg/day i.p. for 4 days, n = 4-5. As to the method: as §1, §2
The test system of the next series is hepatic Ugt1a6 mRNA. Kind of series: Hepatic mRNA expression by qPCR. The note with it: 2.56 nmol/kg/day i.p. for 4 days, n = 4-5. As to the method:
as §1, §2

The subject of another series is hepatic Ugt2b3 mRNA. Kind of series: Hepatic mRNA expression by qPCR. Conditions: 2.56 nmol/kg/day i.p. for 4 days, n = 4-5. As to the method: as §1, §2
For another series, the system named is hepatic Cyp1a2 mRNA. In words: Hepatic mRNA expression by qPCR. Conditions: 2.56 nmol/kg/day i.p. for 4 days, n = 4-5. As to the method:
as §1, §2

In the next series the test system is hepatic Cyp2c11 protein. Kind of series: Hepatic protein expression by Western blotting. The note with it: 2.56 nmol/kg/day i.p. for 4 days, n = 5, p = 0.0001. As to the method:
(§3) (Seoul, Korea). […] On the fifth day, rats were used for pharmacokinetic study. For protein extraction, the rat liver tissues were homogenized in RIPA buffer (#89900, ThermoFisher Scientific, Waltham, MA, USA) with protease/phosphatase inhibitors using a Diax 900 homogenizer. The homogenized liver samples were incubated in ice for 30 min (for complete lysis) with vortexing every 5 min, and then centrifuged at 14,000× g for 30 min. The supernatants were collected and diluted by 10 times. The protein levels were quantified using the BCA Protein Assay Kit (#23227, ThermoFisher Scientific, Waltham, MA, USA) with bovine serum albumin (BSA) standards. Total protein lysates were subjected to Western blot analysis. Lysates were mixed with 2X Laemmli buffer (Bio-Rad) supplemented with β-mercaptoethanol (Bio-Rad) and boiled for 5 min. […] Immunoblotting was performed with the following antibodies: rabbit CYP2C11 antibody (#ab3571, Abcam, Cambridge, UK), rabbit UGT1A6 antibody (#ab157476, Abcam, Cambridge, UK) and mouse CYP2B1/B2 antibody (#sc-53244, Santa Cruz Biotechnology, Dallas, TX, USA) and HRP-conjugated β-actin mouse antibody (Sigma; cat#A3854; 1:10,000). The following secondary antibodies were used: HRP-conjugated goat antibody to mouse IgG (Genetex; cat# GTX-213111-01, 1:5000), HRP-conjugated goat antibody to rabbit IgG (Genetex; cat# GTX-213110-01; 1:5000). Then, the bands were visualized via chemiluminescence (#34577, ThermoFisher Scientific, Waltham, MA, USA). Densitometric analysis of the bands was performed using ImageJ software (NIH; rsb.info.nih.gov/ij).
Background: In western blotting, separated proteins are transferred to a membrane and probed.

The next series has as its system hepatic Cyp2b2 protein. In words: Hepatic protein expression by Western blotting. The note with it: 2.56 nmol/kg/day i.p. for 4 days, n = 5, p = 0.1728. As to the method: as §3
A further series concerns hepatic Cyp2b1 protein. In words: Hepatic protein expression by Western blotting. Conditions: 2.56 nmol/kg/day i.p. for 4 days, n = 5, p = 0.0006. As to the method:
as §3

For a further series, the system named is hepatic Ugt1a6 protein. Kind of series: Hepatic protein expression by Western blotting. The note with it: 2.56 nmol/kg/day i.p. for 4 days, n = 5, p = 0.5192. As to the method:
as §1

For the next series, the system named is liver tissue. Kind of series: Liver histology (H&E) after 1,25(OH)2D3 treatment. The note with it: H&E sections after four days of treatment. As to the method:
as §1

A short description of series [1]: Serum chemistry for liver function after 1,25(OH)2D3 treatment. Conditions: fifth day after 2.56 nmol/kg/day i.p. for 4 days, n = 3. As to the method: Male Sprague-Dawley (SD) rats (8 weeks, 260–280 g) were purchased from Nara Biotech Co. (Seoul, Korea). Animals were maintained in cages under controlled conditions under a 12-h dark/light cycle with free access to food and tap water, acclimated for at least five days in the laboratory before experiments, and allocated to a control group or 1,25(OH)2D3-treated group. The 1,25(OH)2D3 dosing solution was prepared by diluting 1,25(OH)2D3 in ethanol with 5 mL of corn oil (2.56 nmol/mL of final concentration). The dosing solution for the control group was prepared but the 1,25(OH)2D3 was omitted. The dosing solutions were administered intraperitoneally to rats at a dose of 1 mL/kg/day (2.56 nmol/kg/day as 1,25(OH)2D3) over four consecutive days. On the fifth day, rats were used for pharmacokinetic study.
Rat serum was obtained from whole blood on the fifth day after the 1,25(OH)2D3 treatment. The assay of total protein, albumin, serum glutamic oxaloacetic transaminase (sGOT), and serum glutamic pyruvic transaminase (sGPT) was performed by Green Cross Reference Laboratory (Seoul, Korea).

Structures are written as SMILES.

Regarding `C=C1/C(=C\C=C2/CCC[C@]3(C)[C@@H]([C@H](C)CCCC(C)(C)O)CC[C@@H]23)C[C@@H](O)C[C@@H]1O` [1,25(OH)2D3, 1α,25-dihydroxyvitamin D3], the “mRNA expression of hepatic Cyp2b1 vs control rats” value in the series with hepatic Cyp2b1 mRNA is reported as “significantly lower”. Also, the “mRNA expression of hepatic Cyp2c6 vs control rats” value with hepatic Cyp2c6 mRNA is on record as “no significant differences”. Moreover, the “mRNA expression of hepatic Cyp2d2 vs control rats” value with hepatic Cyp2d2 mRNA is recorded as “no significant differences”. The “mRNA expression of hepatic Ugt1a8 vs control rats” value in the series on hepatic Ugt1a8 mRNA is “no significant differences”. Further, the “mRNA expression of hepatic Ugt1a7 vs control rats” value in the series on hepatic Ugt1a7 mRNA was “no significant differences”. Also, the “mRNA expression of hepatic Ugt1a1 vs control rats” value in the series on hepatic Ugt1a1 mRNA is reported as “no significant differences”. Also, the “mRNA expression of hepatic Cyp2c11 vs control rats” value in the series with hepatic Cyp2c11 mRNA is “significantly lower”. In the series with hepatic Ugt2b1 mRNA, the “mRNA expression of hepatic Ugt2b1 vs control rats” value is recorded as “no significant differences”. Further, the “mRNA expression of hepatic Ugt1a6 vs control rats” value in the series with hepatic Ugt1a6 mRNA is “significantly lower”. In addition, the “mRNA expression of hepatic Ugt2b3 vs control rats” value with hepatic Ugt2b3 mRNA is “no significant differences”. Besides, the “mRNA expression of hepatic Cyp1a2 vs control rats” value with hepatic Cyp1a2 mRNA is reported as “no significant differences”. Besides, the “Hepatic Cyp2c11 protein level vs control rats” value in the series with hepatic Cyp2c11 protein is “significantly lower”. For the same compound, in the series with hepatic Cyp2b2 protein, the “Hepatic Cyp2b2 protein expression vs control rats” value is listed as “lower, but this difference is not significant”. Besides, the “Hepatic Cyp2b1 protein expression vs control rats” value with hepatic Cyp2b1 protein is given as “significantly decreased”. Besides, the “Hepatic Ugt1a6 protein expression vs control rats” value with hepatic Ugt1a6 protein is listed as “remained unchanged”. In the series on liver tissue, the “Damage to liver tissue (histology)” value is given as “no apparent evidence of damage to liver tissue”. In series [1], this compound showed an Albumin of 3.97 ± 0.15 g/dL, a Total protein of 5.73 ± 0.25 g/dL, a sGOT of 158 ± 35 IU/L and a sGPT of 22.7 ± 3.2 IU/L.
